Assay [1] relates to RS4;11 leukaemia tumour line. The assay can be described thus: In vitro cytotoxicity, Microculture Tetrazolium Assay (MTT). Conditions: Homo sapiens; RS4;11 cells, 48 hours exposure. The assay is classed as cell-based. The protocol: The cytotoxicity studies were carried out on the RS4;11 leukaemia tumour line.
The cells are distributed onto microplates and exposed to the test compounds for 48 hours. The cell viability is then quantified by a colorimetric assay, the Microculture Tetrazolium Assay (Cancer Res., 1987, 47, 939-942).

Assay [2] concerns cleaved form of caspase 3. The assay can be described thus: Quantification of the cleaved form of caspase 3 in vivo (MSD ELISA) in RS4;11 xenograft tumour lysates. Set-up: species or system mice (SCID strain). To be noted: oral route. The protocol:
Quantification of the Cleaved Form of Caspase 3 In Vivo
The ability of the compounds of the invention to activate caspase 3 is evaluated in a xenograft model of RS4;11 leukaemia cells.
1×10^7 RS4;11 cells are grafted subcutaneously into immunosuppressed mice (SCID strain). 25 to 30 days after the graft, the animals are treated orally with the various compounds. After treatment, the tumour masses are recovered (after a time period T) and lysed, and the cleaved (activated) form of caspase 3 is quantified in the tumour lysates.
This quantification is carried out using the “Meso Scale Discovery (MSD) ELISA platform” test, which specifically assays the cleaved form of caspase 3. It is expressed in the form of an activation factor corresponding to the ratio between the quantity of cleaved caspase 3 in the treated mice divided by the quantity of cleaved caspase 3 in the control mice.
A general note: ELISA stands for enzyme-linked immunosorbent assay.

For assay [3], the target named is Bcl-2 protein (histag-Bcl-2, UniProtKB P10415) (Homo sapiens (Human), UniProt P10415). The assay can be described thus: Inhibition of Bcl-2 by the fluorescence polarisation technique. To be noted: fluorescence polarisation test; method A, or method B where underlined (underlining not visible); read-out: IC50 (nM) Bcl-2 FP. The assay is classed as binding. An excerpt:
Inhibition of Bcl-2 by the fluorescence polarisation technique

Structures can show the parent of a compound that is named as a salt.

Usually IC50 stands for the midpoint of a concentration-inhibition curve.

Sequence of Bcl-2 protein (P10415 whole entry): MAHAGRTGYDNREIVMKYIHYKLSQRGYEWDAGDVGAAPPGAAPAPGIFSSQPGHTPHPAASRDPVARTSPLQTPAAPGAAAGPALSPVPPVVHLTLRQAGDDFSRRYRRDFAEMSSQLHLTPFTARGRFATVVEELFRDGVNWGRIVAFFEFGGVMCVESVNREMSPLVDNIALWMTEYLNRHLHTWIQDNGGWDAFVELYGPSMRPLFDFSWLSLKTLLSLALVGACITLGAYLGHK

As for `Cl.O=C(c1cn(-c2cc3c(cc2C(=O)N2Cc4ccccc4C[C@H]2CN2CCOCC2)OCO3)c2ccccc12)N(c1ccccc1)c1ccc(O)cc1` [Example 184, N-(4-Hydroxyphenyl)-1-{6-[(3S)-3-(morpholin-4-ylmethyl)-1,2,3,4-tetrahydroisoquinoline-2-carbonyl]-2H-1,3-benzodioxol-5-yl}-N-phenyl-1H-indole-3-carboxamide hydrochloride], the IC50 in assay [1] amounted to 154 nM; in assay [3], 14.1 nM. The “Activation factor ± SEM (versus control), cleaved caspase 3 MSD test” value in assay [2] (100 mg/kg, tumour removed after 16 h) came to 15.1.

`COc1cc(-n2cc(C(=O)N(c3ccccc3)c3ccc(F)cc3)c3ccccc32)c(C(=O)N2Cc3ccccc3C[C@H]2CN2CCN(C)CC2)cc1O` [Example 190, N-(4-Fluorophenyl)-1-{4-hydroxy-5-methoxy-2-[(3S)-3-[(4-methylpiperazin-1-yl)methyl]-1,2,3,4-tetrahydroisoquinoline-2-carbonyl]phenyl}-N-phenyl-1H-indole-3-carboxamide dihydrochloride]: the figures for the IC50 in assay [1] and in assay [3] were 645 nM and 13.6 nM, respectively.

Consider `COc1cc(-n2cc(C(=O)N(c3ccccc3)c3ccc(C)cc3)c3ccccc32)c(C(=O)N2Cc3ccccc3C[C@H]2CN2CCN(C)CC2)cc1O` [Example 193, 1-{4-Hydroxy-5-methoxy-2-[(3S)-3-[(4-methylpiperazin-1-yl)methyl]-1,2,3,4-tetrahydroisoquinoline-2-carbonyl]phenyl}-N-(4-methylphenyl)-N-phenyl-1H-indole-3-carboxamide], for which the results for the IC50 in assay [1] and in assay [3] were 499 nM and 5.6 nM, respectively.

In the case of `CCCCN(C(=O)c1cn(-c2cc(OC)c(O)cc2C(=O)N2Cc3ccccc3C[C@H]2CN2CCN(C)CC2)c2ccccc12)c1ccccc1` [Example 194, N-Butyl-1-{4-hydroxy-5-methoxy-2-[(3S)-3-[(4-methylpiperazin-1-yl)-methyl]-1,2,3,4-tetrahydroisoquinoline-2-carbonyl]phenyl}-N-phenyl-1H-indole-3-carboxamide dihydrochloride], the figures for the IC50 in assay [1] and in assay [3] were 534 nM and 6.7 nM, respectively.

Consider `CN1CCN(C[C@@H]2Cc3ccccc3CN2C(=O)c2cc3c(cc2-n2cc(C(=O)N(c4ccccc4)c4ccc(O)cc4)c4cc(F)ccc42)OCO3)CC1` [Example 195, 5-Fluoro-N-(4-hydroxyphenyl)-1-{6-[(3S)-3-[(4-methylpiperazin-1-yl)methyl]-1,2,3,4-tetrahydroisoquinoline-2-carbonyl]-2H-1,3-benzodioxol-5-yl}-N-phenyl-1H-indole-3-carboxamide], for which the values for the IC50 in assay [1] and in assay [3] were 507 nM and 31.1 nM, respectively.

As for `CN1CCN(C[C@@H]2Cc3ccccc3CN2C(=O)c2cc3c(cc2-n2cc(C(=O)N(c4ccccc4)c4ccc(O)cc4)c4ccc(F)cc42)OCO3)CC1` [Example 197, 6-Fluoro-N-(4-hydroxyphenyl)-1-{6-[(3S)-3-[(4-methylpiperazin-1-yl)methyl]-1,2,3,4-tetrahydroisoquinoline-2-carbonyl]-2H-1,3-benzodioxol-5-yl}-N-phenyl-1H-indole-3-carboxamide], the IC50 in assay [1] is 328 nM; in assay [3] it was 9.8 nM.

Consider `COc1cc(-n2cc(C(=O)N(c3ccccc3)c3ccc4[nH]ccc4c3)c3ccccc32)c(C(=O)N2Cc3ccccc3C[C@H]2CN2CCN(C)CC2)cc1O` [Example 198, 1-{4-Hydroxy-5-methoxy-2-[(3S)-3-[(4-methylpiperazin-1-yl)methyl]-1,2,3,4-tetrahydroisoquinoline-2-carbonyl]phenyl}-N-(1H-indol-5-yl)-N-phenyl-1H-indole-3-carboxamide], for which the IC50 in assay [1] turned out to be 616 nM; in assay [3] it was 3.4 nM.

Regarding `CCCCN(CCCC)C(=O)c1cn(-c2ccc(NC(=O)CSc3ccccc3)cc2C(=O)N2Cc3ccccc3C[C@H]2CN2CCN(C)CC2)c2ccccc12` [Example 199, N,N-Dibutyl-1-{2-[(3S)-3-[(4-methylpiperazin-1-yl)methyl]-1,2,3,4-tetrahydroisoquinoline-2-carbonyl]-4-[2-(phenylsulphanyl)acetamido]phenyl}-1H-indole-3-carboxamide], the IC50 came to 2360 nM in assay [1] and 57.7 nM in assay [3].

`CCCCN(CCCC)C(=O)c1cn(-c2ccc(NC(=O)COc3ccccc3)cc2C(=O)N2Cc3ccccc3C[C@H]2CN2CCN(C)CC2)c2ccccc12` [Example 200, N,N-Dibutyl-1-{2-[(3S)-3-[(4-methylpiperazin-1-yl)methyl]-1,2,3,4-tetrahydroisoquinoline-2-carbonyl]-4-(2-phenoxyacetamido)phenyl}-1H-indole-3-carboxamide]: the IC50 in assay [1] turned out to be 2080 nM; in assay [3] it was 155 nM.

`COc1cc(-n2cc(C(=O)N(c3ccc(O)cc3)c3ccc(F)cc3)c3ccccc32)c(C(=O)N2Cc3ccccc3C[C@H]2CN2CCN(C)CC2)cc1O` [Example 201, N-(4-Fluorophenyl)-1-{4-hydroxy-5-methoxy-2-[(3S)-3-[(4-methylpiperazin-1-yl)methyl]-1,2,3,4-tetrahydroisoquinoline-2-carbonyl]phenyl}-N-(4-hydroxyphenyl)-1H-indole-3-carboxamide dihydrochloride]: the IC50 came to 124 nM in assay [1] and 3.1 nM in assay [3].

`COc1cc(-n2cc(C(=O)N(c3ccc(O)cc3)c3ccc4[nH]ccc4c3)c3ccccc32)c(C(=O)N2Cc3ccccc3C[C@H]2CN2CCN(C)CC2)cc1O` [Example 202, 1-{4-Hydroxy-5-methoxy-2-[(3S)-3-[(4-methylpiperazin-1-yl)methyl]-1,2,3,4-tetrahydroisoquinoline-2-carbonyl]phenyl}-N-(4-hydroxyphenyl)-N-(1H-indol-5-yl)-1H-indole-3-carboxamide]: the IC50 turned out to be 798 nM in assay [1] and 4.4 nM in assay [3].

For `CCCCN(C(=O)c1cn(-c2cc(OC)c(O)cc2C(=O)N2Cc3ccccc3C[C@H]2CN2CCN(C)CC2)c2ccccc12)c1ccc(O)cc1` [Example 203, N-Butyl-1-{4-hydroxy-5-methoxy-2-[(3S)-3-[(4-methylpiperazin-1-yl)methyl]-1,2,3,4-tetrahydroisoquinoline-2-carbonyl]phenyl}-N-(4-hydroxyphenyl)-1H-indole-3-carboxamide dihydrochloride], the figures for the IC50 in assay [1] and in assay [3] were 454 nM and 10 nM, respectively.

For the compound `COc1cc(-n2cc(C(=O)N(c3ccc(O)cc3)C3CCCCC3)c3ccccc32)c(C(=O)N2Cc3ccccc3C[C@H]2CN2CCN(C)CC2)cc1O` [Example 204, N-Cyclohexyl-1-{4-hydroxy-5-methoxy-2-[(3S)-3-[(4-methylpiperazin-1-yl)methyl]-1,2,3,4-tetrahydroisoquinoline-2-carbonyl]phenyl}-N-(4-hydroxyphenyl)-1H-indole-3-carboxamide dihydrochloride], the IC50 in assay [1] is 780 nM; in assay [3], 4.7 nM.

Regarding `COc1ccc(C(=O)N2Cc3ccccc3C[C@H]2CN2CCN(C)CC2)c(-n2cc(C(=O)N(c3ccc(O)cc3)c3ccc4c(ccn4C)c3)c3ccccc32)c1` [Example 205, N-(4-Hydroxyphenyl)-1-{5-methoxy-2-[(3S)-3-[(4-methylpiperazin-1-yl)methyl]-1,2,3,4-tetrahydroisoquinoline-2-carbonyl]phenyl}-N-(1-methyl-1H-indol-5-yl)-1H-indole-3-carboxamide], the IC50 in assay [1] turned out to be 123 nM; in assay [3], 4.3 nM.

Take `Cc1cc(C(=O)N(c2ccc(O)cc2)c2cnc3c(ccn3C)c2)cn1-c1cc2c(cc1C(=O)N1Cc3ccccc3C[C@H]1CN1CCOCC1)OCO2` [Example 206, N-(4-Hydroxyphenyl)-5-methyl-N-(1-methyl-1H-pyrrolo[2,3-b]pyridin-5-yl)-1-(6-{[(3S)-3-(morpholin-4-ylmethyl)-3,4-dihydroisoquinolin-2(1H)-yl]-carbonyl}-1,3-benzodioxol-5-yl)-1H-pyrrole-3-carboxamide hydrochloride]: the half-maximal inhibitory concentration (IC50) in assay [1] came out at 72.4 nM; in assay [3] it was 16.7 nM.

For `Cl.Cn1ccc2cc(N(C(=O)c3cn(-c4cc5c(cc4C(=O)N4Cc6ccccc6C[C@H]4CN4CCOCC4)OCO5)c4c3CCCC4)c3ccc(O)cc3)cnc21` [Example 207, N-(4-Hydroxyphenyl)-N-(1-methyl-1H-pyrrolo[2,3-b]pyridin-5-yl)-1-(6-{[(3S)-3-(morpholin-4-ylmethyl)-3,4-dihydroisoquinolin-2(1H)-yl]carbonyl}-1,3-benzodioxol-5-yl)-4,5,6,7-tetrahydro-1H-indole-3-carboxamide hydrochloride], the IC50 amounted to 22.2 nM in assay [1] and 20.3 nM in assay [3]. For the same compound, the “Activation factor ± SEM (versus control), cleaved caspase 3 MSD test” value in assay [2] (25 mg/kg, tumour removed after 2 h) was determined as 14.6 ± 4.4.

For `Cc1c(C(=O)N(c2ccc(O)cc2)c2cnc3c(ccn3C)c2)cn(-c2cc(Cl)ccc2C(=O)N2Cc3ccccc3C[C@H]2CN2CCOCC2)c1C` [Example 209, 1-(5-Chloro-2-{[(3S)-3-(morpholin-4-ylmethyl)-3,4-dihydroisoquinolin-2(1H)-yl]carbonyl}phenyl)-N-(4-hydroxyphenyl)-4,5-dimethyl-N-(1-methyl-1H-pyrrolo[2,3-b]pyridin-5-yl)-1H-pyrrole-3-carboxamide hydrochloride], the results for the half-maximal inhibitory concentration (IC50) in assay [1] and in assay [3] were 62.9 nM and 4.1 nM, respectively.

The record behind these values is patent US9765056B2, “Indole and pyrrole compounds, a process for their preparation and pharmaceutical compositions containing them” (LES LABORATOIRES SERVIER, priority 2013, dated 2017).
